From patent publication US9757426B2, “Peptide additives for enhancing acceptance and ingestion of edibles by rodents and uses thereof” (priority 2013, dated 2017) come the findings set out here.

No end group written: not given here.

Assay type in all cases: in vivo
The test system of test [1] is mice. Nature of the test: Concentration/response functions, preference for warfarin-containing food. As to conditions: both foods contain 0.025% warfarin, +/- SEM. The source says:
Concentration/response functions were studies for uroguanylin. […] A preference ratio of 0.5 indicates no preference.
Concentration/response functions were also studied for guanylin. […] A preference ratio of 0.5 indicates no preference.

Test [2] has as its system mice. Description: Maintenance over time of uroguanylin-dependent preferences (warfarin-containing foods, retests). As to conditions: 50 nM uroguanylin. Here is the method: Mice form preferences to food and feeding sites when food odors are paired with the social cues uroguanylin. It was determined whether mice will maintain this preference and return to the learned food odor even after the food has been tainted with the commonly used rodenticide warfarin. […] A preference ratio of 0.5 indicates no preference. […] These same mice were retested one and four days after the initial day of testing. […] By contrast, there was no effect of the test day on the preference ratio.

The test system of another test is C57BL/6J mice. Description: Preference testing after uroguanylin exposure (B6 mice). As to conditions: mean ± s.e.m. The source says: Food preference testing—Food preference assays were modified from those used previously for testing the social transmission of food preference in rats and mice (Galef et al. 1983; Posadas-Andrews and Roper 1983; Valsecchi and Galef 1989; Crawley 2007; Ryan et al. 2008; Munger et al. 2010). In all experiments, subject mice were pair-housed for four days in standard cages with the food container placed on the cage floor. Mice were fed a crushed rodent diet (2018SX, Harlan) to habituate them to powdered food. The amount of food was restricted to 2 g/mouse/day to facilitate feeding during the food preference tests. […] All data were expressed as mean ±S.E.M. Differences were accepted as significant if p<0.05 (see below for statistical tests).
B6 mice were randomly assigned into one of three groups (n=8 each). On the test day, each mouse was moved to individual cages and presented with a petri dish containing a drop of saline (150 μl) with added flavor powder (2% cocoa or 1% cinnamon) with or without uroguanylin (0, 50 nM or 50 μM). After 1 hr exposure, mice were moved to clean cages. After 3 hrs, mice were presented with two food trays (3.5 cm petri dishes mounted to a weighted plastic stage), one of which contained cocoa-odored food (3.5 g) and the other cinnamon-odored food (3.5 g). Subject mice were allowed to feed for 1 hr, at which point the food trays were removed and weighed to calculate the amount of each food consumed. […] Significance between stimulus conditions was determined by one-way ANOVA.
The chemostimulus CS2, when paired with a food odor, is sufficient to increase the attractiveness of foods and to promote the acquisition of food preferences in mice (Bean et al. 1988; Munger et al. 2010). Whether uroguanylin could serve a similar role was tested. Individual observer mice were allowed to interact with a petri dish containing an odor (2% cocoa or 1% cinnamon) with or without uroguanylin (50 nM or 50 μM) in saline. Each mouse was subsequently presented with a choice of two odored chows (cocoa vs. cinnamon).

Setting [3] is: 1 nM peptide + food odor in saline for 1 hr.
Setting [4] is: 50 nM peptide + food odor in saline for 1 hr.

Regarding “guanylin (PGTCEICAYAACTGC; ends and bridges not checked; cysteine pairing not given here; UniProt Q02747 101-115, looked up) [guanylin family peptide, naturally-occurring peptide hormone produced in the intestines]”, the “Preference ratio (PR = food with demonstrated odor (g) consumed/total food (g) consumed)” value in the test with mice [1] (setting [3]) is 0.75 +/−0.04; in the test with mice [1] (setting [4]), 0.72 +/−0.04.
Turning to “uroguanylin (NDDCELCVNVACTGCL; ends and bridges not checked; cysteine pairing not given here; UniProt Q16661 97-112, looked up) [guanylin family peptide, naturally-occurring peptide hormone produced in the intestines; GC-D agonist]”, the “Preference ratio (PR = food with demonstrated odor (g) consumed/total food (g) consumed)” value in the test on mice [1] (setting [3]) is on record as 0.65 +/−0.05; in the test with mice [1] (setting [4]), 0.76 +/−0.04. Also, the “Preference ratio (PR)” value in the test with mice [2] (initial day of testing, both foods contain 0.025% warfarin) is listed as 0.76+/−0.04; with mice [2] (retest Day 2, foods contain 0.025% warfarin), 0.72 +/−0.06; in the test on mice [2] (retest Day 5, foods contain 0.025% warfarin) it was 0.74 +/−0.08. The “Amount of food consumed, Total food” value with C57BL/6J mice (Odor + UG (50 nM)) is 1.42 ± 0.19 g; in the test on C57BL/6J mice (Odor + UG (50 μM)), 1.50 ± 0.26 g. Besides, the results for the “Amount of food consumed, w/demonstrated odor” value with C57BL/6J mice (Odor + UG (50 nM)) and in the test on C57BL/6J mice (Odor + UG (50 μM)) were 1.08 ± 0.14 g and 1.15 ± 0.14 g, respectively. Further, the “Amount of food consumed, w/novel odor” value stood at 0.34 ± 0.08 g in the test with C57BL/6J mice (Odor + UG (50 nM)) and 0.35 ± 0.12 g in the test on C57BL/6J mice (Odor + UG (50 μM)).
